The results in this text go back to US20120295838A1, “Selective poly-substituted glycine antibiotics and related compositions” (priority 2008, published 2012).

Values after ≈ are worked out from the molar mass of the structure shown. Read-outs that look alike come from different tables or passages of the source. Numbered stars: 1 amine (or outer) side, 2 acyl side, 3 side chain; on linkers, the order of the positions; unused ones are H or OH. Square brackets hold non-standard residues; d marks the D form. Ends that are not written are not given here. Peptide text beside a SMILES is read from it. Gly(N-CH2CH2-imidazol-4-yl) = O=C(O)CNCCc1c[nH]cn1; X1 = CC(C)[C@H](C)N(CC(=O)[*:2])[*:1]; Nspe = C[C@H](NCC(=O)O)c1ccccc1; Nphe = O=C(O)CNCc1ccccc1; Nlys = NCCCCNCC(=O)O

Format in all cases: cell-based
One data set deals with human erythrocytes. As to the kind of experiment: Hemolysis assay. In a few lines: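 Peptoid dilution series (1:2 in PBS) combined with equal volume of 20 vol % human red cells from heparinised blood, 37 °C for 1 h. Released hemoglobin measured as supernatant absorbance at 350 nm post-centrifugation, scaled between PBS-only wells and 0.2 vol % Triton X-100 total lysis.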
Data set [1] deals with Staphylococcus aureus NRS100 (COL). The note with it: for Selectivity ratio (SR): Table 7B, 10% hemolytic dose divided by MIC, S. aureus NRS100 (COL). How it is done:
(§1) Antibacterial assays. MICs were determined according to CLSI M7-A6 protocols in a 96-well microtiter plate. In test wells, 50 uL bacterial inoculum (5×10^5 CFU/ml) in Mueller-Hinton broth (MHB) was added to 50 μL peptoid solution in MHB (prepared by 1:2 serial dilutions). Positive controls contained 50 μL inoculum and 50 μL MHB without peptoid. […] MIC values reported were reproducible between three independent experimental replicates, each consisting of two parallel trials. Broad-spectrum antimicrobial susceptibility testing was performed against BSL2 pathogens by Nova Biologicals, Inc. (Conroe, Tex.).
(§2) Broad-spectrum antibacterial assays. MICs of compounds were determined by microdilution procedure in Mueller-Hinton broth (MHB) in accordance with CLSI M7-A6 protocols in a manner similar to that described for the screen antibacterial assays. Inoculated microtiter plates were incubated at 35° C. for 24 hours prior to the result being recorded. Four ATCC strains that were used as standards are recommended by CLSI: Pseudomonas aeruginosa ATCC 27853, Escherichia coli ATCC 25922, Staphylococcus aureus ATCC 29213 and Enterococcus faecalis ATCC 29212. Other strains from the ATCC collection include Proteus vulgaris ATCC 49132, Proteus mirabilis ATCC 35659, Klebsiella pneumoniae ATCC 33495, Enterobacter aerogenes ATCC 35029 and Serratia marcescens ATCC 13880. S. aureus NRS100 (COL) is a well characterized methicillian-resistant S. aureus (MRSA) strain. The strains S. aureus VAN1 and S. aureus VAN2, vancomycin-resistant MRSA strains that were isolated in Michigan and Pennsylvania, were the first vancomycin-resistant strains clinically isolated. S. aureus NRS 119 and S. aureus NRS 120 are linezolid-resistant isolates from the Network on Antimicrobial Resistance in S. aureus (NARSA) collection. E. faecalis 99 and E. faecium 106 are vancomycin-resistant enterococcal strains.

The subject of a further data set is Enterococcus faecium 106. The note with it: for Selectivity ratio (SR): Table 7B, 10% hemolytic dose divided by MIC. The procedure:
as §1, §2

Data set [2] has as its system Staphylococcus aureus VAN1. The note with it: for Selectivity ratio (SR): Table 7B, 10% hemolytic dose divided by MIC, S. aureus VAN1. The procedure:
as §1, §2

Data set [3] concerns Proteus vulgaris ATCC 49132. Particulars: for Selectivity ratio (SR): Table 7B, 10% hemolytic dose divided by MIC. The procedure: as §1, §2
The subject of data set [4] is Enterococcus faecalis ATCC 29212. Particulars: for Selectivity ratio (SR): Table 7B, 10% hemolytic dose divided by MIC. The procedure: as §1, §2
For a further data set, the system named is Enterococcus faecalis 99. Particulars: for Selectivity ratio (SR): Table 7B, 10% hemolytic dose divided by MIC. The procedure: as §1, §2
Data set [5] relates to Klebsiella pneumoniae ATCC 33495. The note with it: for Selectivity ratio (SR): Table 7B, 10% hemolytic dose divided by MIC. The procedure: as §1, §2
Data set [6] deals with Pseudomonas aeruginosa ATCC 27853. Particulars: for Selectivity ratio (SR): Table 7B, 10% hemolytic dose divided by MIC. How it is done:
as §1, §2

As for `C[C@@H](c1ccccc1)N(CC(=O)N(CCc1cnc[nH]1)CC(=O)N(CCCCN)CC(=O)N(CC(=O)N(CC(=O)N(CCCCN)CC(=O)N(CC(=O)N(CCc1cnc[nH]1)CC(N)=O)[C@@H](C)c1ccccc1)[C@@H](C)c1ccccc1)[C@@H](C)c1ccccc1)C(=O)CN(CCCCN)C(=O)CN(C(=O)CN(C(=O)CNCCCCN)[C@@H](C)c1ccccc1)[C@@H](C)c1ccccc1` [1-Nhis6,12, H-(Nlys-Nspe-Nspe-Nlys-Nspe-Nhis)2-NH2] (H-[Nlys][Nspe][Nspe][Nlys][Nspe][Gly(N-CH2CH2-imidazol-4-yl)][Nlys][Nspe][Nspe][Nlys][Nspe][Gly(N-CH2CH2-imidazol-4-yl)]-NH2), in the data set with human erythrocytes, the HD10 is reported as >200/>200 μM and the HD50 is reported as >200/>200 μM.
Usually MIC stands for the least concentration at which growth counts as inhibited. Higher therefore signals weaker potency. For the compound `CC(C)[C@H](C)N(CC(=O)N(CC(=O)N(CCCCN)CC(=O)N(CC(=O)N(CC(=O)N(CCCCN)CC(=O)N(CC(=O)N(CC(=O)N(CCCCN)CC(=O)N(CC(=O)N(CC(N)=O)[C@@H](C)c1ccccc1)[C@@H](C)C(C)C)[C@@H](C)c1ccccc1)[C@@H](C)C(C)C)[C@@H](C)c1ccccc1)[C@@H](C)C(C)C)[C@@H](C)c1ccccc1)C(=O)CNCCCCN` [1-Nsdp2,5,8,11, H-(Nlys-Nsdp-Nspe)4-NH2] (H-[Nlys][X1][Nspe][Nlys][X1][Nspe][Nlys][X1][Nspe][Nlys][X1][Nspe]-NH2), the MIC amounted to 8 µg/mL (≈ 4.75 µM) in data set [1] (NRS100 (COL)); 4 µg/mL (≈ 2.38 µM) in the data set on Enterococcus faecium 106 (106); 8 µg/mL (≈ 4.75 µM) in [2] (VAN1); 32 µg/mL (≈ 19 µM) in [3] (ATCC 49132); 8 µg/mL (≈ 4.75 µM) in [4] (ATCC 29212); 64 µg/mL (≈ 38 µM) against Enterococcus faecalis 99 (99). The minimal inhibitory concentration (MIC) in data set [5] (ATCC 33495) came to 8 µg/mL (≈ 4.75 µM); in [6] (ATCC 27853), 16 µg/mL (≈ 9.51 µM). Further, the “Selectivity ratio (SR)” value in [1] is listed as 23; in the data set with Enterococcus faecium 106 (E. faecium 106), 46; in data set [2], 23; in data set [3] (P. vulgaris ATCC 49132), 5.8; in data set [4] (E. faecalis ATCC 29212) it was 23; with Enterococcus faecalis 99 (E. faecalis 99), 2.9. Moreover, the “Selectivity ratio (SR)” value came to 23 in [5] (K. pneumoniae ATCC 33495) and 12 in [6] (P. aeruginosa ATCC 27853).
Consider `NCCCCNCC(=O)N(CC(=O)N(CC(=O)N(CCCCN)CC(=O)N(CC(=O)N(CC(=O)N(CCCCN)CC(=O)N(CC(=O)N(CC(=O)N(CCCCN)CC(=O)N(CC(=O)N(CC(N)=O)Cc1ccccc1)Cc1ccccc1)Cc1ccccc1)Cc1ccccc1)Cc1ccccc1)Cc1ccccc1)Cc1ccccc1)Cc1ccccc1` [1achiral, H-(Nlys-Npm-Npm)4-NH2] (H-[Nlys][Nphe][Nphe][Nlys][Nphe][Nphe][Nlys][Nphe][Nphe][Nlys][Nphe][Nphe]-NH2), for which the HD10 in the data set with human erythrocytes was found to be 180 µM. In the data set with human erythrocytes, this compound registered an HD50 greater than 200 µM. Further, the “Selectivity ratio (SR)” value amounted to 39 in data set [1]; 79 in the data set on Enterococcus faecium 106 (E. faecium 106); 39 in data set [2]; 9.8 in data set [3] (P. vulgaris ATCC 49132); 19 in [4] (E. faecalis ATCC 29212); 4.9 with Enterococcus faecalis 99 (E. faecalis 99). Besides, the “Selectivity ratio (SR)” value amounted to 39 in data set [5] (K. pneumoniae ATCC 33495) and 19 in data set [6] (P. aeruginosa ATCC 27853).
“GIGKFLKKAKKFGKAFVKILKK-NH2 [pexiganan, reference compound]” yielded an HD10 in the data set with human erythrocytes (human, 1 h, pH 7.4) of 73 µM. This compound also returned an HD50 in the data set with human erythrocytes (human, 1 h, pH 7.4) greater than 200 µM. Further, the MIC in [1] (Table 7A, S. aureus NRS100 (COL) (MRSA)) was 16 µg/mL; against Enterococcus faecium 106 (Table 7A, E. faecium 106) it was 4 µg/mL; in data set [2] (Table 7A, S. aureus VAN1 (MRSA, vancomycin-resistant)) it was 16 µg/mL; in [3] (Table 7A, P. vulgaris ATCC 49132) it was 32 µg/mL; in [4] (Table 7A, E. faecalis ATCC 29212), 32 µg/mL; in the data set with Enterococcus faecalis 99 (Table 7A, E. faecalis 99) it was 128 µg/mL. Also, the MIC is 8 µg/mL in data set [5] (Table 7A, K. pneumoniae ATCC 33495) and 4 µg/mL in data set [6] (Table 7A, P. aeruginosa ATCC 27853). Also, the “Selectivity ratio (SR)” value amounted to 11 in data set [1]; 46 with Enterococcus faecium 106 (E. faecium 106); 11 in [2]; 5.7 in [3] (P. vulgaris ATCC 49132); 5.7 in data set [4] (E. faecalis ATCC 29212); 1.4 with Enterococcus faecalis 99 (E. faecalis 99). The entries for the “Selectivity ratio (SR)” value in data set [5] (K. pneumoniae ATCC 33495) and in data set [6] (P. aeruginosa ATCC 27853) were 23 and 46, respectively.
